Results: patent US5034380A, “Alkoxymethylidene epipodophyllotoxin glucosides” (Bristol-Myers Squibb Company, priority 1989, dated 1991)
Converted amounts (≈) assume the structure as drawn.

How the values were obtained:
[1] = test system: murine transplantable P388 leukemia; test: in vivo antitumor activity against P388 leukemia in mice (single ip dose, median survival time); design: species or system murine (female CDF1 mice); details: Q1D × 1, ip; for T/C % of MST: day 1
Procedure: Representative compounds of the present invention were evaluated for antitumor activity against murine transplantable P388 leukemia. Female CDF1 mice were inoculated intraperitoneally with approximately 10^6 P388 leukemic cells (day 0). […] The percent increase of median survival time (MST) of treated animals over that of untreated control animals was determined and reported as % T/C. Compounds showing % T/C values of 125 or greater are considered to have significant antitumor activity.

B16-F10 murine melanoma = test: in vitro cytotoxicity, B16-F10 murine melanoma; format: cell-based; details: Mus musculus; B16-F10, 72 hours, neutral red
Procedure: (§1) Representative compounds of the present invention were also tested in in vitro cytotoxicity assays against four tumor cell lines. These cell lines were grown and maintained at 37° C. under a humidified atmosphere in a 5% CO2 incubator:
B16-F10 murine melanoma in Eagle's MEM medium (Nissui) containing kanamycin (60 μg/ml) and supplemented with heat-inactivated fetal calf serum (FCS, 10 %) and non-essential amino acids (0.6 %);
(§2) In experiments using the B16-F10 and Moser cell lines, exponentially growing cells were harvested, counted and suspended in the culture medium at a concentration of 1.5×10^4 and 3×10^4 cells/ml, respectively. Twenty-four hours after planting cell suspension (180 μl) into wells of a 96-well microtiter plate, test materials (20 μl) were added to the wells and the plates were incubated for 72 hours. Cytotoxicity against the tumor cells was colorimetrically determined at 540 nm after staining viable cells with neutral red solution. For the K562 and K562/ADM cell lines, 900 μl of the cell suspension (8×10^4 cells/ml) was incubated with test materials (100 μl) at 37° C., 5% CO2 for 48 hours in a 24-well tissue culture plate. Cytotoxicity was determined by counting the number of cells using a cell counter.

[2] = test system: Moser human colon carcinoma; test: in vitro cytotoxicity, Moser human colon carcinoma; format: cell-based; details: 72 hours, neutral red
Procedure: as §1
Moser human colon carcinoma in Eagle's MEM medium supplemented with FCS (10 %);
as §2

[3] = test system: K562 human myelogenous leukemia; test: in vitro cytotoxicity, K562 human myelogenous leukemia; format: cell-based; details: K562, 48 hours, cell counter
Procedure: as §1
(§3) K562 human myelogenous leukemia and K562/ADM, an adriamycin-resistant subline which was kindly provided by Dr. Takashi Tsuruo (University of Tokyo) in RPMI 1640 medium (Nissui) supplemented with FCS (10 %), penicillin (100 U/ml) and streptomycin (100 μg/ml).
as §2

[4] = test system: K562/ADM, an adriamycin-resistant subline; test: in vitro cytotoxicity, K562/ADM adriamycin-resistant subline; format: cell-based; details: Homo sapiens, 48 hours, cell counter
Procedure: as §1, §3, §2

Structure (SMILES) | T/C % of MST ([1]; 0.1 mg/kg) [%] | T/C % of MST ([1]; 0.3 mg/kg) [%] | T/C % of MST ([1]; 1 mg/kg) [%] | T/C % of MST ([1]; 3 mg/kg) [%] | T/C % of MST ([1]; 10 mg/kg) [%] | T/C % of MST ([1]; 30 mg/kg) [%] | T/C % of MST ([1]; 60 mg/kg) [%] | T/C % of MST ([1]; 120 mg/kg) [%] | IC50 (B16-F10 murine melanoma) [µg/mL] | IC50 [2] [µg/mL] | IC50 [3] [µg/mL] | IC50 [4] [µg/mL] | Number of survivors/tested on day 50 ([1]; 120 mg/kg)
COc1cc([C@@H]2c3cc4c(cc3[C@@H](O[C@@H]3O[C@@H]5CO[C@H](OC)O[C@H]5[C@H](O)[C@H]3O)[C@H]3COC(=O)[C@H]23)OCO4)cc(OC)c1O [Compound 1a, 4'-Demethyl-4-O-(4,6-O-β-Methoxymethylidene-β-D-Glucopyranosyl)Epipodophyllotoxin] | 115 | 132 | 137 | 142 | 149 | 166 | 195 | 248 | 0.094 (≈ 0.155 µM) |  |  |  | 
COc1cc([C@@H]2c3cc4c(cc3[C@@H](O[C@@H]3O[C@@H]5CO[C@@H](OC)O[C@H]5[C@H](O)[C@H]3O)[C@H]3COC(=O)[C@H]23)OCO4)cc(OC)c1O [Compound 1b, 4'-Demethyl-4-O-(4,6-O-α-Methoxymethylidene-β-D-Glucopyranosyl)EpipodophYllotoxin] | 110 | 120 | 130 | 145 | 165 | 180 |  |  | 0.27 (≈ 0.447 µM) | 3.4 (≈ 5.62 µM) |  |  | 
CCO[C@H]1OC[C@H]2O[C@@H](O[C@@H]3c4cc5c(cc4[C@@H](c4cc(OC)c(O)c(OC)c4)[C@H]4C(=O)OC[C@@H]43)OCO5)[C@H](O)[C@@H](O)[C@@H]2O1 [Compound 2a, 4'-Demethyl-4-O-(4,6-O-β-Ethoxymethylidene-β-D-Glucopyranosyl)Epipodophyllotoxin] | 114 | 119 | 124 | 133 | 148 | 171 | 181 | 214 | 0.11 (≈ 0.178 µM) | 1.7 (≈ 2.75 µM) | 0.065 (≈ 0.105 µM) | > 50 | 
CCO[C@@H]1OC[C@H]2O[C@@H](O[C@@H]3c4cc5c(cc4[C@@H](c4cc(OC)c(O)c(OC)c4)[C@H]4C(=O)OC[C@@H]43)OCO5)[C@H](O)[C@@H](O)[C@@H]2O1 [Compound 2b, 4'-Demethyl-4-O-(4,6-O-α-Ethoxymethylidene-α-D-Glucopyranosyl)Epipodophyllotoxin] | 114 | 114 | 119 | 138 | 143 | 167 | 200 | 219 | 0.54 (≈ 0.873 µM) | 2.2 (≈ 3.56 µM) | 0.18 (≈ 0.291 µM) | > 50 | 1/4
COc1cc([C@@H]2c3cc4c(cc3[C@@H](O[C@@H]3O[C@@H]5COC(OC)(OC)O[C@H]5[C@H](O)[C@H]3O)[C@H]3COC(=O)[C@H]23)OCO4)cc(OC)c1O [Compound 3, 4'-Demethyl-4-O-(4,6-O-Dimethoxymethylidene-β-D-Glucopyranosyl)Epipodophyllotoxin] | 125 | 135 | 135 | 140 | 170 | 190 | 170 | 210 | 2.7 (≈ 4.25 µM) | 3.3 (≈ 5.2 µM) |  |  | 1/4
CCOC1(OCC)OC[C@H]2O[C@@H](O[C@@H]3c4cc5c(cc4[C@@H](c4cc(OC)c(O)c(OC)c4)[C@H]4C(=O)OC[C@@H]43)OCO5)[C@H](O)[C@@H](O)[C@@H]2O1 [Compound 4, 4'-Demethyl-4-O-(4,6-Diethoxymethylidene-β-D-Glucopvranosyl)Epipodophyllotoxin] | 100 | 109 | 127 | 132 | 136 | 145 | 150 | 182 | 7.3 (≈ 11 µM) | 3 (≈ 4.53 µM) | 0.082 (≈ 0.124 µM) | 32 (≈ 48.3 µM) | 
COc1cc([C@@H]2c3cc4c(cc3[C@@H](O[C@@H]3O[C@@H]5CO[C@@H](C)O[C@H]5[C@H](O)[C@H]3O)[C@H]3COC(=O)[C@H]23)OCO4)cc(OC)c1O [Etoposide, reference compound] | 120 | 130 | 136 | 143 | 163 | 185 | 212 | 288 |  |  |  |  | 
